Experimental data from patent publication US10722467B2, “Remote loading of sparingly water-soluble drugs into liposomes” (ZONEONE PHARMA, INC., priority 2013, dated 2020).

How the values were obtained:
Type in all cases: physicochemical
[1] = Remote loading of aripiprazole into liposomes
Method: Liposomes (HSPC/Chol/PEG-DSPE 3/2/0.15 mol/mol/mol) containing 250 mM ammonium sulfate or 250 mM sodium sulfate were diluted in 1 mL of 50 mM citric acid, 10% (wt/wt) sucrose, pH 4.0 to a concentration of 6 mM phospholipid. 0.3 mg of aripiprazole was added from a stock solution of 15 mg/mL in DMSO, so that the final DMSO concentration was 2% (v/v). Fine precipitates were immediately observed after the drug was added to both liposome samples. The samples were heated at 65° C. for 30 min, the cooled on ice. The samples were filtered through a 0.2 um polyethersulfone syringe filter to remove any drug precipitates, followed by purification on a Sephadex G25 column equilibrated with HBS, pH 6.5 to remove any soluble extraliposome drug. The turbid fraction was collected and analyzed for lipid and drug as described above.

[2] = Aripiprazole precipitates from various solvents with liposomes, absorbance at 600 nm; details: drug initially dissolved in DMSO, 1-4-methylpyrrolidone, diethylenemonoethylether or polyethyleneglycol (MW400); 7.5% solvent; ammonium sulfate liposomes; 65°C 30 min
Method: Aripiprazole was dissolved in a range of solvents indicated below at 4 mg/mL. Liposomes composed of HSPC/Chol/PEG-DSPE (3/2/0.15 mol/mol/mol) that were prepared in 250 mM ammonium sulfate were used and diluted to 6 mM in Hepes buffered sucrose 10% (wt/wt) (HBSuc pH 6.5). 0.3 mg of drug was introduced by slow addition of each solvent while vortexing. The final solvent concentration was 7.5% for all samples. As controls, the drug was added from each solvent to the same volume of HBSuc pH 6.5 without the liposomes. The samples were heated at 65° C. for 30 min then cooled on ice.

[3] = Light scattering at 600 nm during carfilzomib loading
Method: Liposomes containing 250 mM ammonium sulfate as trapping agent and 250 mM sodium sulfate as control liposomes which would not remote load drug. The liposomes were prepared and loaded using the procedure described in Example 1 except a disposable polystyrene cuvette was used as the reaction vessel. The scattering of light at 600 nm was measured with a UV/vis spectrophotometer during the loading process.

[4] = Carfilzomib solubility as a function of DMSO content (optical density at 600 nm); details: drug 0.2 mg/mL
Method: Carfilzomib was added from a stock 10 mg/mL solution in DMSO to 1 mL of a citric acid/DMSO mixture so that the composition of DMSO was 2%, 25%, 50%, 75% and 100%. The final drug concentration was 0.2 mg/mL. The solutions were prepared and measured for optical density at 600 nm. The optical density at 600 nm is a good measure of how turbid or how much scattering material (such as drug precipitates) are in a solution, generally, the more precipitates the higher the absorbance. From FIG. 8 is apparent that at DMSO concentrations below 50% vol/vol (25° C.) and 25% vol/vol (65° C.) the drug remains in a precipitated form. Only when the concentration of DMSO is increased does it become effectively solubilized at this concentration of 0.2 mg/mL.

[5] = Liposome size by dynamic light scattering; details: carfilzomib-loaded liposomes, before lyophilizing
Method: (§1) The lipid concentration is determined by measuring the cholesterol by HPLC using an Agilent 1100 HPLC with and Agilent Zorbax 5 um, […], Eclipse XDB-C8 column and a mobile phase of A=0.1% TFA, B=0.1% TFA/MeOH with an isocratic elution of 99% B. The flow rate is 1.0 mL/min, column temperature is 50° C., 10 μL injection and detection by absorbance at 205 nm. The retention time of cholesterol is 4.5 min. The liposome size is measured by dynamic light scattering.
See Example 1, Carfilzomib liposome entrapment by remote loading for details on how the liposomes were made, purified and characterized.

[6] = Remote loading of carfilzomib into liposomes (drug/lipid ratio and loading efficiency by HPLC); details: for efficiency of loading: 100 g drug/mol HSPC
Method: Ammonium sulfate solution was prepared by dissolving ammonium sulfate solid to a final concentration of 250 mM (500 mequivilents of anion/L) no pH adjustment was made to yield a final pH of 5.6. Sodium sulfate solution (250 mM) was prepared by adding 0.35 g sodium sulfate to 10 mL deionized water.
The liposomes were formed by extrusion. Lipids were dissolved in ethanol at a concentration of 500 mM HSPC (591 mg/mL total lipid) at 65° C. and the 9 volumes of the trapping agent solution heated to 65° C. was added to the ethanol/lipid solution also at 65° C. The mixture was vortexed and transferred to a 10 mL thermostatically controlled (65° C.) Lipex Extruder. The liposomes were formed by extruding 10 times through polycarbonate membranes having 0.1 um pores. After extrusion the liposomes were cooled on ice. The transmembrane electrochemical gradient was formed by purification of the liposomes by dialysis in dialysis tubing having a molecular weight cut off of 12,000-14,000. The samples are dialyzed against 5 mM HEPES, 10% sucrose pH 6.5 (stirring at 4° C.) at volume that is 100 fold greater than the sample volume. The dialysate was changed after 2 h then 4 more times after 12 h each. The conductivity of the liposome solution was measured and was indistinguishable from the dialysis medium ˜40 μS/cm.
as §1
Carfilzomib (Selleck Chemicals) was dissolved in DMSO at a concentration of 10 mg/mL. […] The liposomes were diluted with 50 mM citrate, 10% sucrose pH 4.0 to increase the volume to a point where after addition of the drug the final DMSO concentration is 2%. The carfilzomib/DMSO was added to the diluted liposomes, which were mixed at room temperature then transferred to a 65° C. bath and swirled every 30 s for the first 3 min and then swirled every 5 min over a total heating time of 30 min. All samples were very cloudy when the drug was added and all became clear (same as liposomes with no drug added) after 15 min. After heating for 30 min all samples were placed on ice for 15 min. The loaded liposomes were vortexed and 100 μL of sample was kept as the “before column” and the rest transferred to microcentrifuge tubes and spun at 10,000 RPM for 5 min. The supernatants were purified on a Sephadex G25 column collected and analyzed by HPLC. The HPLC analysis of carfilzomib was performed on the same system as described for analysis of cholesterol. The mobile phase consists of A=0.1% TFA, B=0.1% TFA/MeOH with a gradient elution starting at 50% B and increasing to 83% B in 13 min with 7 min equilibration back to 50% B. The flow rate is 1.0 mL/min, column temperature is 30 C, 10 μl injection and detection by absorbance at 205 nm. The retention time of carfilzomib is 12.2 min. The lipid concentration is determined by analysis of the cholesterol by HPLC. […]
Napthelenedisulfonic acid (NDS) was dissolved in water and titrated with diethylamine to a final pH of 8.0 and concentration of 250 mM (500 mequivilents of anion/L). […]
To ensure complete removal of the DMSO added with carfilzomib, the liposomal carfilzomib samples were dialyzed in dialysis tubing having a molecular weight cut off of 12,000-14,000. The samples are dialyzed against 5 mM HEPES, 10% sucrose pH 6.5 (stirring at 4° C.) at volume that is 100 fold greater than the sample volume. The dialysate was changed after 2 h then 2 more times after 12 h each. The carfilzomib liposomes were again analyzed for drug and lipid concentration as described above. […]

[7] = Reverse gradient-directed drug release from liposomes
Method: Liposomes were loaded with carfilzomib as described in Example 1 and were purified into deionized water. The sample was divided into two aliquots. To the first aliquot, concentrated Hepes pH 7.4 and NaCl was added so that the final concentration was 5 mM Hepes, 145 mM NaCl (HBS). To the second aliquot, concentrated ammonium sulfate was added so that the final concentration was 250 mM. No obvious physical changes were initially observed. The samples were then heated at 65° C. for 30 min. The samples were transferred to clean eppendorf tubes and centrifuged for 10,000 rpm for 5 min after which the supernatants and precipitates were separated and tested for carfilzomib content by HPLC assay. Released drug precipitated, liposome encapsulated drug remained in the supernatant. The % carfilzomib released was calculated by […]

[8] = 500 mM ammonium sulfate liposomes, highest input ratio of Example 10
[9] = [(NH4)2SO4] 250 mM, input drug/HSPC 167.3 g/mol

O=C1CCc2ccc(OCCCCN3CCN(c4cccc(Cl)c4Cl)CC3)cc2N1 [aripiprazole]
loading efficiency ([1]; drug introduced as SBCD complex (from the pharmaceutical product Abilify), same concentration and loading conditions): 68%
Fold Increase NH4SO4/NaSO4 ([1]; loading into ammonium sulfate vs sodium sulfate liposomes): 49.3 fold
clarification of drug precipitate with liposomes (absorbance at 600 nm) [2]: clarified the drug precipitate

CC(C)C[C@H](NC(=O)[C@H](CCc1ccccc1)NC(=O)CN1CCOCC1)C(=O)N[C@@H](Cc1ccccc1)C(=O)N[C@@H](CC(C)C)C(=O)[C@@]1(C)CO1 [carfilzomib]
time to clarification of the solution ([3]; 250 mM ammonium sulfate liposomes, light scattering at 600 nm during loading): ≤ 15 min
clarification of the precipitate during loading ([3]; 250 mM sodium sulfate control liposomes, light scattering at 600 nm): do not show any clarification of the precipitate
DMSO concentration below which the drug remains in a precipitated form ([4]; 25°C): below 50 % vol/vol
DMSO concentration below which the drug remains in a precipitated form ([4]; 65°C): < 25 % vol/vol
DMSO required to completely dissolve the drug ([4]; 65°C, citric acid/DMSO mixture): > 25 % vol/vol
PDI ([5]; trapping agent (NH4)2SO4, drug added quickly): 0.062
PDI ([5]; trapping agent (NH4)2SO4, drug added slowly): 0.035
PDI ([5]; trapping agent mellitic acid): 0.08
PDI ([5]; trapping agent napthelenedisulfonic acid): 0.039
drug/carrier total lipid weight ratio (highest reached) [6, 8]: 0.4
final drug payload (highest reached) [6, 8]: 469±4.9 g drug/mol HSPC
final drug to lipid ratio ([6]; 500 mM ammonium sulfate, input 639 g drug/mol HSPC): 440±10.2 g drug/mol HSPC
remote loading ([6]; DMSO absent): practically no loading
Drug payload/carrier weight ratio ([6]; [(NH4)2SO4] 250 mM, input drug/HSPC 91.8 g/mol): 0.07 g drug/g total lipid
Drug payload/carrier weight ratio [6, 9]: 0.11 g drug/g total lipid
efficiency [6, 9]: 76.0%
Drug payload/carrier weight ratio ([6]; [(NH4)2SO4] 250 mM, input drug/HSPC 251.8 g/mol): 0.15 g drug/g total lipid
Drug payload/carrier weight ratio ([6]; [(NH4)2SO4] 250 mM, input drug/HSPC 338.1 g/mol): 0.18 g drug/g total lipid
Drug payload/carrier weight ratio ([6]; [(NH4)2SO4] 250 mM, input drug/HSPC 432.8 g/mol): 0.20 g drug/g total lipid
Drug payload/carrier weight ratio ([6]; [(NH4)2SO4] 500 mM, input drug/HSPC 450.6 g/mol): 0.29 g drug/g total lipid
Drug payload/carrier weight ratio ([6]; [(NH4)2SO4] 500 mM, input drug/HSPC 545.9 g/mol): 0.32 g drug/g total lipid
Drug payload/carrier weight ratio ([6]; [(NH4)2SO4] 500 mM, input drug/HSPC 639.2 g/mol): 0.37 g drug/g total lipid
Drug payload/carrier weight ratio ([6]; [(NH4)2SO4] 500 mM, input drug/HSPC 758.7 g/mol): 0.40 g drug/g total lipid
efficiency of loading ([6]; drug from 10 mg/mL DMSO solution added in 5 increments over 1 min while vortexing): 96.3%±1.09%
efficiency of loading ([6]; drug from 10 mg/mL DMSO solution added quickly, 2% DMSO): 97.0%±2.38%
loading capacity, remote loaded (ammonium sulfate) vs sodium sulfate liposomes ([6]; drug input below/at 100 g drug/mol HSPC): > 3 fold
effect of time between precipitate formation and loading on loading efficiency ([6]; liposomes added immediately, after 1 h or 12 h delay): does not have a significant impact
degradation of released drug by HPLC chromatogram ([7]; after loading and release from liposomes, compared with starting material): no degradation of carfilzomib had taken place
drug released with reverse gradient vs control with no reverse gradient ([7]; ammonium sulfate vs Hepes buffered saline): 6.5 fold
